Legend:
Ole1 = target: T1, Ole1 (Saccharomyces cerevisiae, UniProt P21147); test: Growth inhibition of yeast strain expressing Ole1 as sole desaturase; format: cell-based; conditions: yeast strain expressing Ole1 as sole desaturase
T1 construct: expressed in transfected cells; host or cells: S. cerevisiae ole1Δ strain (W303 pdr1Δ pdr3Δ background), plasmid pRS316 with TDH3 promoter and CYC1 terminator
T1 sequence (P21147 1-510): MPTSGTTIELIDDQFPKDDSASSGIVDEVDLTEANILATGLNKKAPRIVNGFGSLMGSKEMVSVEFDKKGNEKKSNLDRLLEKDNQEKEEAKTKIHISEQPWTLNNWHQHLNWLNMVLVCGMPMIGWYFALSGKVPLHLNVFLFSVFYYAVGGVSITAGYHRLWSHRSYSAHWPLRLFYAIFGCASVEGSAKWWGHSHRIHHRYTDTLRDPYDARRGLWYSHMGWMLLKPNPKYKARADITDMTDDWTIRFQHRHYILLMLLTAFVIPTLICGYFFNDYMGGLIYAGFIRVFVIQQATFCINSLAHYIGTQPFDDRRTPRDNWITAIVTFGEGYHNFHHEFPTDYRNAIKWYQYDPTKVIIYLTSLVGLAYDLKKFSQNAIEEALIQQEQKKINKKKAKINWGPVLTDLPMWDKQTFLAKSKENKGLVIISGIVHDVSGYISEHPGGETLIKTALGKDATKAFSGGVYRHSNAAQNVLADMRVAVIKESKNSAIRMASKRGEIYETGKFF
How it was run: (§1)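 Measured by optical density at 600 nm, growth of desaturase-dependent yeast (OLE1 deleted; human SCD1, human SCD5 or yeast Ole1 supplied from plasmid) was scored after 24 h (Ole1) or 40 h (SCD1, SCD5) at 30° C. in galactose media lacking uracil with DMSO-delivered compound.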

SCD5 = target: T2, SCD5 (Homo sapiens, UniProt Q86SK9); test: Growth inhibition of humanized yeast strain expressing SCD5 as sole desaturase; format: cell-based; conditions: humanized yeast strain expressing SCD5
T2 construct: host or cells: S. cerevisiae ole1Δ strain (W303 pdr1Δ pdr3Δ background), plasmid pRS316 with TDH3 promoter and CYC1 terminator
T2 sequence (Q86SK9 1-330): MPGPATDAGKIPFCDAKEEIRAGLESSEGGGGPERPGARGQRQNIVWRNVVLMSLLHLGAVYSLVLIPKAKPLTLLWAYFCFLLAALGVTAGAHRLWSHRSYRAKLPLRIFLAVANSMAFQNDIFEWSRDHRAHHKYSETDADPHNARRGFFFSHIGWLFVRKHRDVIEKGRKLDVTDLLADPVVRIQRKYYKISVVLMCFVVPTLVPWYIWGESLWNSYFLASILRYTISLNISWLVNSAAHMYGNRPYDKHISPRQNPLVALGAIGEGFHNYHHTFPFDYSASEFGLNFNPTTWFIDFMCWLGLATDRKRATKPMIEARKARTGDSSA
How it was run: as §1

[1] = test system: yeast strains expressing the human ApoE4; test: Yeast ApoE4 toxicity rescue assay (OD600 growth); conditions: 24 h; for EC50: read-out: ApoE4 EC50; for Emax: read-out: ApoE4 Emax
Excerpt: The induced expression of α-synuclein and ApoE4 confers cytotoxicity, thus enabling the identification of compounds that can restore cell viability. This instantaneous/synchronous induction of α-synuclein and ApoE4 can be achieved due to the following expression control. In glucose-containing media, gene expression from the GAL1 promoter is ‘off’ and actively repressed by additional epigenetic factors. In raffinose, expression is ‘off’, but the promoter not actively repressed. Upon transition to galactose-containing media, the promoter is instantaneously turned ‘on’ to achieve robust and synchronous induction of α-synuclein or ApoE4 expression. This highly regulated induction provides a robust window for the determination of both efficacy (amplitude of protective effect) and potency (concentration of protective effect) of cytoprotective compounds.
Re-suspended compound stocks were subsequently arrayed into 384 well compound plates using automated pipetting. All other wells not receiving stock compound were filled with 10 μL of 100% DMSO using an automated plate filler (Multidrop Combi). An 11 point, 2-fold serial dilution was then performed using the robotic platform. Compound assay plates were covered with foil and stored at −20° C. until use.
Each strain was handled according to standard protocols and cultured in media composed of CSM (complete synthetic media), YNB (yeast nitrogenous base), and a 2% (w/v) carbon source (either glucose, raffinose, or galactose).
In a standard yeast assay, a single-use aliquot of cells was thawed on ice and diluted into CSM/glucose (5 mL). Cultures were grown for 8 hours at 30° C. This pre-growth enables the yeast to exit the thaw and begin to grow without expressing aSyn or ApoE4. After 8 hours, cell density (OD600) was determined and cultures diluted to an OD600 of 0.01 in CSM/raffinose for an overnight culture phase at 30° C. During this period, the active glucose repression of the GAL1 promoter was relieved; however, expression of the α-Syn/ApoE4 genes were not yet induced. After ˜16 hours of growth, cultures attain an OD600 of 0.4-0.8 and were ready to apply to assay plates containing compound.
Compound profiling assays were executed in clear-bottom 384 well plates. First, compound plates were thawed at room temperature for 45′, centrifuged at 1,000×g for 1 minute, and the foil removed. Clear 384 well assay plates were then filled with 15 μL of CSM/galactose. […] The pin tool was washed iteratively with both 50% DMSO and 100% ethanol between each assay plate. After delivering compound to each assay plate, the overnight CSM/raffinose aSyn or ApoE4 cultures were added at a 2X cell density (0.04 for aSyn and 0.08 for ApoE4) in CSM/galactose to achieve a final assay OD600 of 0.02 and 0.04 for aSyn and ApoE, respectively. The cultures (15 μL per well) were then dispensed to the compound -containing 384 well assay plates using an automated plate filler. Plates were incubated in a humidified 30° C. incubator for 40 or 24 hours for aSyn and ApoE4, respectively. The ODsoo of each assay plate was then read with a microplate reader (e.g., Perkin Elmer Envision).
The efficacy and potency of compounds were calculated according to the following. Raw data (OD600 values) were first background corrected to account for OD600 contributed by the plate and media itself. The efficacy (percent above DMSO, herein referred to as “Emax”) was calculated according to the equation: (Experimental well−DMSO control well)/(DMSO control well)*100. […] Normalized dose-response data was fit with a logistic regression curve using Spotfire (TIBCO), or similar curve-fitting software package. EC50 values were then reported along with EMax to provide both efficacy and potency measures for each analog and enable further compound design.

[2] = test system: yeast strains expressing the human α-synuclein; test: Yeast α-synuclein toxicity rescue assay (OD600 growth); conditions: 40 h; for EC50: read-out: α-Syn EC50; for Emax: read-out: α-Syn Emax
SCD1 = target: T3, SCD1 (Homo sapiens, UniProt O00767); test: Growth inhibition of humanized yeast strain expressing SCD1 as sole desaturase; format: cell-based; conditions: humanized yeast strain expressing SCD1
T3 construct: host or cells: S. cerevisiae ole1Δ strain (W303 pdr1Δ pdr3Δ background), plasmid pRS316 with TDH3 promoter and CYC1 terminator
T3 sequence (O00767 1-359): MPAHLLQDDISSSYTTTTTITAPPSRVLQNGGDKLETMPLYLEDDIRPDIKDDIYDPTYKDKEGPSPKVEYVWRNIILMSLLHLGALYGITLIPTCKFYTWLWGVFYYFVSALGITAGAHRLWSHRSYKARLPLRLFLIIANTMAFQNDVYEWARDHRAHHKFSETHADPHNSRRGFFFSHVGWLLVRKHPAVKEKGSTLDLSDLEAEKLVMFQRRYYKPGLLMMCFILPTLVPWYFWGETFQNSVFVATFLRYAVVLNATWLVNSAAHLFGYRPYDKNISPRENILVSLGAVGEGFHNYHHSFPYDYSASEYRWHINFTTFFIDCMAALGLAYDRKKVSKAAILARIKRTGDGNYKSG
How it was run: as §1

| Structure (SMILES) | IC50 (Ole1) [µM] | IC50 (SCD5) [µM] | EC50 [1] [µM] | Emax [1] [%] | EC50 [2] [µM] | Emax [2] [%] | IC50 (SCD1) [µM] | OLE1 % Max Inhibition (Ole1) [%] | SCD5 % Max Inhibition (SCD5) [%] | SCD1 % Max Inhibition (SCD1) [%] |
| --- | --- | --- | --- | --- | --- | --- | --- | --- | --- | --- |
| O=C(NCC(=O)N1CCC(c2nc(-c3ccc(Cl)c(Cl)c3)no2)CC1)c1ccccc1 [compound 23] | > 45 | > 45 | 6.51 | 466 | 7.68 | 182 | 33.6 | – | – | – |
| COc1ccc(-c2noc(C3CCN(C(=O)[C@@H]4CC(=O)N(c5ccc(C)c(C)c5)C4)CC3)n2)cc1 (single isomer, unassigned) [Compound 63] | > 45 | > 45 | 13.4 | 250 | 17.2 | 68 | 33.7 | 101.06 | 9.39 | 62.04 |
| Cc1ccc(-c2noc(C3CCN(C(=O)[C@@H]4CC(=O)N(c5ccc(C)c(C)c5)C4)CC3)n2)cc1 [Compound 62] | > 45 | > 45 | 21.4 | 430 | 21.7 | 204 | > 45 | 86.77 | 5.75 | 28.73 |
| COc1ccc(-c2noc(C3CCN(C(=O)C4CC(=O)N(c5ccc(C)c(C)c5)C4)CC3)n2)cc1 (centres unmarked) [compound 20] | > 45 | > 45 | 16.2 | 529 | 15.1 | 181 | > 45 | – | – | – |
| COc1cccc(-c2noc(C3CCN(C(=O)C4CC(=O)N(c5ccc(C)c(C)c5)C4)CC3)n2)c1 (centres unmarked) [compound 21] | > 45 | > 45 | – | 447 | – | 276 | 39.9 | – | – | – |
| O=C(NCC(=O)N1CCC(c2nc(-c3ccccc3)no2)CC1)c1ccccc1 [compound 9] | > 45 | > 45 | – | 301 | 12.1 | 167 | > 45 | – | – | – |
| COc1ccc(-c2noc(C3CCN(C(=O)/C=C/C(=O)c4ccccc4)CC3)n2)cc1OC [Compound 33] | > 45 | > 45 | 0.717 | 281 | 0.111 | 260 | > 45 | 1.55 | 24.10 | 8.14 |
| COc1ccc(-c2noc(C3CCN(C(=O)CNC(=O)c4ccc(C)c(C)c4)CC3)n2)cc1 [compound 16] | > 45 | > 45 | 21.2 | 418 | 17.8 | 249 | 37.1 | – | – | – |
| COc1ccc(-c2nc(C3CCN(C(=O)CNC(=O)c4ccccc4)CC3)no2)cc1OC [Compound 36] | > 45 | > 45 | 2.15 | 908 | 1.76 | 629 | 30 | 17.70 | 63.86 | 64.67 |
| COc1ccc(-c2noc(C3CCN(C(=O)C(C)NC(=O)c4ccccc4)CC3)n2)cc1OC (centres unmarked) [Compound 28] | > 45 | > 45 | 1.59 | 836 | 0.066 | 576 | > 45 | 4.80 | 79.98 | 98.15 |
| COc1ccc(-c2noc(C3CCN(C(=O)CNc4nccc5ccccc45)CC3)n2)cc1OC [Compound 55] | > 45 | > 45 | 7.9 | 29 | 23.8 | 47 | 33.7 | 114.12 | 74.78 | 74.99 |

— patent US11873298B2, “Compounds and uses thereof” (JANSSEN PHARMACEUTICA NV, priority 2017, dated 2024)
